# Experimental data reported in patent US20190151340A1, “POLYMERIC NAN[…]” (priority 2017, published 2019).
# Key:
# [1] = Comparative toxicity in wild-type mice (body weight, lethality); assay type: in vivo, CD1 wild type mice
# Description: The effect of nanoparticles in mitigating the toxicity of bortezomib was examined in wild-type mice. Different doses of bortezomib alone (1.5, 3, 6, 9 and 12 mg/kg) or bortezomib-nanoparticles (NP) (0.9, 1.8, 3.6, 5.4 and 7.2 mg/kg) were injected into CD1 wild type. Three mice were used in each group of bortezomib alone and bortezomib-NP groups, body weights, food and water uptake were measured every day for 22 days.
# [2] = system: relapsed and refractory multiple myeloma; settings: Richardson et al. 2003, Phase 2; cited from earlier work
# [3] = system: human tumor xenograft models; settings: Albanell and Adams 2002; cited from earlier work
structure (smiles),measurement,setting,value
"CC(C)C[C@H](NC(=O)[C@H](Cc1ccccc1)NC(=O)c1cnccn1)B(O)O [bortezomib, N-2-pyrazinecarbonyl-L-phenylalanine-L-leucineboronic acid]",survival,[1]; 6 mg/kg dose,two
same,survival,[1]; 9 mg/kg dose,died after Day 1
same,effectiveness in patients,[2],effectiveness in treating relapsed and refractory multiple myeloma
same,antitumor activity,[3],significant antitumor activity
